System: WM3248 melanoma cells, 486 antibodies
Experiment: Reverse phase protein arrays (RPPA);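 for CA9.R.C RPPA level: ratio of treated to vehicle (0 µM) normalized linear protein signal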;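 for RPPA ACC1.R.C: ratio of treated to vehicle (0 µM) normalized linear protein signal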;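 for RPPA ASNS.R.V: ratio of treated to vehicle (0 µM) normalized linear protein signal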;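 for RPPA AceCS1.R.V: ratio of treated to vehicle (0 µM) normalized linear protein signal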;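 for RPPA Akt1.R.V: ratio of treated to vehicle (0 µM) normalized linear protein signal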;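 for RPPA Ambra1 pS52.R.C: ratio of treated to vehicle (0 µM) normalized linear protein signal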;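 for RPPA Atg5.R.C: ratio of treated to vehicle (0 µM) normalized linear protein signal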;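 for RPPA Bim.R.V: ratio of treated to vehicle (0 µM) normalized linear protein signal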
Assay type: cell-based, Human
Settings: 5 uM
Source text: Pellets were snap frozen in liquid nitrogen and shipped to MD Anderson Cancer Center core RPPA facility for RPPA analysis (Table S5). Three biological replicates for each sample were generated.
Nomenclatures on the RPPA heatmaps: name_of_antibody.species_of_antibody.status_of_antibody. V - antibody validated; C - validation of antibody in progress; Q - antibody nonspecific; E – under evaluation; antibodies raised in M - mouse, G - goat, R - rabbit, or T - rat.

## CN(C)c1cccc(Nc2cc(-c3ccccc3)nc(C3CCNCC3)n2)c1 [ARN22089, N1,N1-dimethyl-N3-(6-phenyl-2-(piperidin-4-yl)pyrimidin-4-yl)benzene-1,3-diamine]
5W3
  RPPA Akt_pT308.R.V: 0.946
  RPPA Ambra1_pS52.R.C: 0.917
  RPPA Annexin.I.M.V: 0.971
  RPPA Annexin.VII.M.V: 1.007
  RPPA Atg3.R.V: 1.133
  RPPA Atg4B.R.C: 1.148
  RPPA Atg5.R.C: 0.936
  RPPA Atg7.R.V: 1.164
  RPPA Aurora.A.R.C: 1.000
  RPPA Aurora.ABC_pT288_pT232_pT198.R.C: 0.878
  RPPA Aurora.B.R.V: 0.688
  RPPA Axl.R.V: 1.276
  RPPA B7.H4.R.C: 1.076
  RPPA B.Raf_pS445.R.V: 1.159
  RPPA BAP1.M.V: 0.823
  RPPA BCL2A1.R.V: 0.750
  RPPA BMK1.Erk5_pT218_Y220.R.V: 1.014
  RPPA BRCA1.M.C: 0.946
  RPPA BRD4.R.V: 1.138
  RPPA Bad_pS112.R.V: 1.056
  RPPA Bak.R.C: 1.134
  RPPA Bax.R.V: 0.916
  RPPA Bcl2.R.C: 0.798
  RPPA Bcl.xL.R.V: 0.681
  RPPA Beclin.R.C: 0.789
  RPPA Bid.R.C: 1.142
  RPPA Bim.R.V: 0.991
  RPPA X4E.BP1.R.V: 1.157
  RPPA X4E.BP1_pT37_T46.R.V: 0.968
  RPPA X14.3.3.zeta.R.V: 0.946
  RPPA X14.3.3βR.V: 1.033
  RPPA X14.3.3εM.C: 0.879
  RPPA X53BP1.R.V: 0.922
  RPPA b.Catenin.R.V: 0.837
  RPPA b.Catenin_pT41_S45.R.V: 0.998
  RPPA c.Abl.R.V: 1.059
  RPPA c.Abl_pY412.R.C: 1.150
  RPPA c.IAP2.R.C: 1.026
Average
  C.Raf.R.C RPPA level: 1.065
  C.Raf_pS338.R.V RPPA level: 1.113
  CA9.R.C RPPA level: 0.982
  CD2.M.C RPPA level: 1.031
  CD4.R.V RPPA level: 1.062
  CD5.M.C RPPA level: 1.017
  CD20.R.C RPPA level: 0.788
  CD26.R.V RPPA level: 0.939
  CD29.M.V RPPA level: 1.028
  CD31.M.V RPPA level: 1.028
  CD44.R.C RPPA level: 0.921
  CD45.M.V RPPA level: 1.027
  CD49b.M.V RPPA level: 0.960
  CD68.M.C RPPA level: 1.012
  CD74.M.V RPPA level: 0.998
  CD134.R.V RPPA level: 1.020
  CD171.M.V RPPA level: 0.844
  CDK1_pT14.R.C RPPA level: 1.060
  CDK9.R.V RPPA level: 0.980
  CDT1.R.V RPPA level: 1.028
  CENP.A.R.V RPPA level: 0.953
  CHD1L.R.V RPPA level: 1.018
  CIITA.R.C RPPA level: 0.895
  COG3.R.V RPPA level: 1.097
  CRABP1.R.C RPPA level: 1.004
  CRABP2.R.V RPPA level: 1.035
  CREB_pS133.R.C RPPA level: 1.124
  CSK.R.C RPPA level: 0.918
  Calnexin.R.V RPPA level: 0.992
  Caspase.7.cleaved..R.C RPPA level: 1.029
  Caspase.8.M.Q RPPA level: 0.956
  Caspase.8.cleaved.R.C RPPA level: 1.054
  Cdc6.R.V RPPA level: 0.980
  Cdc42.R.C RPPA level: 1.028
  Chk1_pS296.R.V RPPA level: 1.083
  Chk1_pS345.R.C RPPA level: 0.981
  Chk2.M.V RPPA level: 0.925
  Chk2_pT68.R.C RPPA level: 1.151
  Claudin.7.R.V RPPA level: 0.907
  Collagen.VI.R.V RPPA level: 1.059
  Complex.II.Subunit.M.V RPPA level: 0.933
  Connexin.43.R.C RPPA level: 1.140
  Coup.TFII.R.C RPPA level: 1.033
  Cox2.R.C RPPA level: 1.057
  Cox.IV.R.V RPPA level: 1.028
  Creb.R.C RPPA level: 1.080
  CtIP.R.V RPPA level: 0.961
  Cyclin.B1.R.V RPPA level: 1.030
  Cyclin.D1.R.C RPPA level: 1.001
  Cyclin.D3.M.V RPPA level: 1.046
  Cyclin.E1.R.V RPPA level: 0.995
  Cyclophilin.F.M.V RPPA level: 0.908
  D.a.Tubulin.R.V RPPA level: 1.114
  DAPK1_pS308.M.C RPPA level: 0.822
  DDB.1.R.V RPPA level: 1.124
  DDR1.R.V RPPA level: 0.952
  DDR1_pY513.R.C RPPA level: 1.021
  DJ1.R.V RPPA level: 1.059
  DM.K9.Histone.H3.M.V RPPA level: 0.994
  DNA.Ligase.IV.R.C RPPA level: 1.104
  DNA_POLG.R.V RPPA level: 0.927
  RPPA A.Raf.R.V: 1.059
  RPPA A.Raf_pS299.R.C: 0.992
  RPPA ACC1.R.C: 1.065
  RPPA ACC_pS79.R.V: 0.961
  RPPA ACLY_pS455.R.V: 0.986
  RPPA ACSL1.R.V: 0.842
  RPPA ACVRL1.R.C: 0.970
  RPPA ADAR1.M.V: 1.014
  RPPA ALKBH5.R.V: 0.919
  RPPA AMPK.a2_pS345.R.V: 1.081
  RPPA AMPKa.R.C: 1.048
  RPPA AMPKa_pT172.R.C: 1.331
  RPPA AR.R.V: 1.032
  RPPA ARID1A.R.C: 1.009
  RPPA ASNS.R.V: 1.062
  RPPA ATM.R.V: 1.153
  RPPA ATM_pS1981.R.V: 0.964
  RPPA ATP5A.M.C: 0.801
  RPPA ATP5H.R.V: 0.961
  RPPA ATR.R.V: 0.966
  RPPA ATRX.R.C: 1.030
  RPPA ATR_pS428.R.C: 1.061
  RPPA AceCS1.R.V: 0.899
  RPPA Akt1.R.V: 0.928
  RPPA Akt1_pS473.R.V: 1.048
  RPPA Akt2.R.V: 1.002
  RPPA Akt2_pS474.R.C: 1.185
  RPPA Akt.R.V: 1.002
  RPPA Akt_pS473.R.V: 1.132
  RPPA Akt_pT308.R.V: 0.940
  RPPA Ambra1_pS52.R.C: 0.946
  RPPA Annexin.I.M.V: 1.026
  RPPA Annexin.VII.M.V: 0.993
  RPPA Atg3.R.V: 1.035
  RPPA Atg5.R.C: 0.970
  RPPA Atg7.R.V: 0.970
  RPPA Aurora.A.R.C: 0.940
  RPPA Aurora.ABC_pT288_pT232_pT198.R.C: 0.876
  RPPA Aurora.B.R.V: 0.890
  RPPA Axl.R.V: 1.076
  RPPA B7.H3.R.C: 1.022
  RPPA B7.H4.R.C: 1.046
  RPPA B.Raf.R.C: 1.049
  RPPA BAP1.M.V: 0.921
  RPPA BCL2A1.R.V: 0.906
  RPPA BMK1.Erk5_pT218_Y220.R.V: 0.997
  RPPA Bad_pS112.R.V: 1.055
  RPPA Bax.R.V: 0.956
  RPPA Bcl2.R.C: 0.897
  RPPA Bcl.xL.R.V: 0.932
  RPPA Beclin.R.C: 0.921
  RPPA BiP.GRP78.M.C: 0.957
  RPPA Bid.R.C: 1.077
  RPPA Bim.R.V: 0.984
  RPPA DNMT1.R.V: 0.995
  RPPA DRP1.R.V: 1.010
  RPPA DUSP4.R.V: 1.114
  RPPA DYRK1B.R.C: 1.013
  RPPA Dvl3.R.V: 1.014
  RPPA E2F1.R.V: 0.961
  RPPA E.Cadherin.R.V: 0.957
  RPPA EGFR.R.V: 0.980
  RPPA EGFR_pY1068.R.C: 0.993
  RPPA EGFR_pY1173.R.V: 1.046

From PMC9127750, “Structure-based design of CDC42 effector interaction inhibitors for the treatment of cancer” (Cell reports, 2022)
